Source: US20250382344A1, “Soluble GLP1/GIP/NPY2 Receptor Triple Agonists” (Boehringer Ingelheim International GmH, priority 2024, published 2025)
Like-named read-outs stand apart in the source and are kept apart here. *1 amine or outer side, *2 acyl side, *3 side chain or, on linkers, in order; H or OH if unused. Where a SMILES comes first, the peptide text is derived from it. Side-chain parts run from the residue outwards. [ ]: non-standard residue; d: D form. The star is where a group is joined. Argψ(CH2NH)TyrNH2 = N=C(N)NCCC[C@@H](CN[C@@H](Cc1ccc(O)cc1)C(N)=O)N*; C18 diacid = O=C(O)CCCCCCCCCCCCCCCCC(=O)*; γGlu = O=C(O)[C@H](CCC(=O)[*:2])N[*:1]; Aib = CC(C)(N)C(=O)O

Columns and labels:
[1] = Solubility in 0.1 M phosphate buffer at pH 7; type: physicochemical; conditions: 0.1 M phosphate buffer at pH 7, 10 mg/mL final peptide concentration, shaking 2 hours at room temperature, peptides as TFA-salts; measured sample pH 6.5-7.0
hNPY2R = target: T1, hNPY2R (Homo sapiens, UniProt P49146); experiment: hNPY2R CreLuc assay in 0.5% and 100% plasma (HEK-293 CRE-luciferase reporter cells); type: cell-based; conditions: 100% human plasma, HEK-293 reporter cells, read-out: hNPY2R 100% hP
T1 construct: expressed in transfected cells; host or cells: HEK-293 CRE-luciferase reporter cells
T1 sequence (P49146 1-381): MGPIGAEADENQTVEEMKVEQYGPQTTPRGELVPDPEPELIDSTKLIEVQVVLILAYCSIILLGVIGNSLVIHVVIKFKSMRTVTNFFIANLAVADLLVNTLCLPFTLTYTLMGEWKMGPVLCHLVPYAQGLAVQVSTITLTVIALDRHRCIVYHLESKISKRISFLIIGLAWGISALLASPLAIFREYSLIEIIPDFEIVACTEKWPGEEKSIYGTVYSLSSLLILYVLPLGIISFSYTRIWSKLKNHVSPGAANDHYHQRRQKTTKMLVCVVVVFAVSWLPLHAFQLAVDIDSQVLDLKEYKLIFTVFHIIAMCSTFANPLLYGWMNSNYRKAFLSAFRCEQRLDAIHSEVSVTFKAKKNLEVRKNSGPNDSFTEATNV

hGLP1R = target: T2, hGLP1R (Homo sapiens, UniProt P43220); experiment: hGLP1R CreLuc assay in 0.5% and 100% plasma (HEK-293 CRE-luciferase reporter cells); type: cell-based; conditions: HEK-293 reporter cells
T2 construct: expressed in transfected cells; host or cells: HEK-293 CRE-luciferase reporter cells

hGIPR = target: T3, hGIPR (Homo sapiens, UniProt P48546); experiment: hGIPR CreLuc assay in 0.5% and 100% plasma (CHO CRE-luciferase reporter cells); type: cell-based
T3 construct: expressed in transfected cells; host or cells: CHO CRE-luciferase reporter cells
T3 sequence (P48546 22-466): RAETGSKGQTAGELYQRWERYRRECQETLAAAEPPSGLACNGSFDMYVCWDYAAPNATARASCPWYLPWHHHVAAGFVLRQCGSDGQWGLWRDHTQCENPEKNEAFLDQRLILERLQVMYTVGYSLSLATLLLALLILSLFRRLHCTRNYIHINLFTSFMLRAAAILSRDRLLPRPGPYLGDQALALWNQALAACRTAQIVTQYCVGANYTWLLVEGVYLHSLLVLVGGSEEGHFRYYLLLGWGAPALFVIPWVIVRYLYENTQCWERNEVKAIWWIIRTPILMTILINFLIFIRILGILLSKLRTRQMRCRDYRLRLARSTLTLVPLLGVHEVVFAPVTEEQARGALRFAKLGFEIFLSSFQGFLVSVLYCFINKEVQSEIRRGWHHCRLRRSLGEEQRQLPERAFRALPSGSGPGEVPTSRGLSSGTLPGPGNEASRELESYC

[2] = 0.5% human plasma, read-out: hGLP1R 0.5% hP
[3] = 100% human plasma, read-out: hGLP1R 100% hP
[4] = 0.5% human plasma, read-out: hGIPR 0.5% hP
[5] = 100% human plasma, read-out: hGIPR 100% hP

T2 sequence (P43220 24-463): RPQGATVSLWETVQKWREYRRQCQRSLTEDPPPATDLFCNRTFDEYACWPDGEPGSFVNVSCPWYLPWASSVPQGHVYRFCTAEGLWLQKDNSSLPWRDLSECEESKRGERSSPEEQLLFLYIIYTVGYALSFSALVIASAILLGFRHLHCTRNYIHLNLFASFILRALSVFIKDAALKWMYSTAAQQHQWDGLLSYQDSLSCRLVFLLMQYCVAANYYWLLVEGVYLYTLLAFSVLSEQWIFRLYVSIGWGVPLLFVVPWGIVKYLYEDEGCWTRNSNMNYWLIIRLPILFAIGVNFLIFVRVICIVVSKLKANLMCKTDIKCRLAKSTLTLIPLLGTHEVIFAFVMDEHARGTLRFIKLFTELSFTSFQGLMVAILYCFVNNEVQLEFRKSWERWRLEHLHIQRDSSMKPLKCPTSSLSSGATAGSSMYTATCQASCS

solubility at 2 h [1]	EC50 (hNPY2R)	EC50 (hGLP1R; [2])	EC50 (hGLP1R; [3])	EC50 (hGIPR; [4])	EC50 (hGIPR; [5])	SMILES
9000 µg/mL	41.3 nM	5.8 nM	–	–	–	CC[C@H](C)[C@H](NC(=O)[C@H](CC(C)C)NC(=O)[C@H](Cc1c[nH]cn1)NC(=O)[C@H](CCCNC(=N)N)NC(=O)[C@H](CC(C)C)NC(=O)[C@H](Cc1ccccc1)NC(=O)[C@H](C)NC(=O)C(C)(C)NC(=O)[C@H](CCC(N)=O)NC(=O)[C@H](C)NC(=O)[C@H](CCC(N)=O)NC(=O)[C@H](CCCCN)NC(=O)[C@H](CCC(=O)O)NC(=O)[C@H](CC(C)C)NC(=O)C(C)(C)NC(=O)[C@@H](NC(=O)[C@H](CO)NC(=O)[C@H](Cc1ccc(O)cc1)NC(=O)[C@H](CC(=O)O)NC(=O)[C@H](CO)NC(=O)[C@@H](NC(=O)[C@H](Cc1ccccc1)NC(=O)[C@@H](NC(=O)CNC(=O)[C@H](CCC(=O)O)NC(=O)C(C)(C)NC(=O)[C@@H](N)Cc1ccc(O)cc1)[C@@H](C)O)[C@@H](C)O)[C@@H](C)CC)C(=O)N[C@@H](CC(N)=O)C(=O)N[C@@H](CCCCNC(=O)[C@@H](N)CCCCNC(=O)CC[C@H](NC(=O)CC[C@H](NC(=O)CC[C@H](NC(=O)CC[C@H](NC(=O)CC[C@H](NC(=O)CC[C@H](NC(=O)CCCCCCCCCCCCCCCCC(=O)O)C(=O)O)C(=O)O)C(=O)O)C(=O)O)C(=O)O)C(=O)O)C(=O)NC(C)(C)C(=O)N[C@H](C(=O)N[C@@H](CCCNC(=N)N)C(=O)N[C@@H](CCC(N)=O)C(=O)N[C@@H](CCCNC(=N)N)C(=O)N[C@@H](Cc1ccc(O)cc1)C(N)=O)[C@@H](C)O [Compound 37, Y-Aib-E-G-T-F-T-S-D-Y-S-I-Aib-L-E-K-Q-A-Q-Aib-A-F-L-R-H-L-I-N-K(1,3)-Aib-T-R-Q-R-Y-NH2.C18DA-gGlu-gGlu-gGlu-gGlu-gGlu-gGlu-eLys(1,2)]
9400 µg/mL	16.2 nM	–	14.5 nM	–	–	CC[C@H](C)[C@H](NC(=O)[C@H](CC(C)C)NC(=O)[C@H](Cc1c[nH]cn1)NC(=O)[C@H](CCCNC(=N)N)NC(=O)[C@@H](NC(=O)[C@H](Cc1ccccc1)NC(=O)[C@H](C)NC(=O)C(C)(C)NC(=O)[C@H](CCC(N)=O)NC(=O)[C@H](C)NC(=O)[C@H](CCC(N)=O)NC(=O)[C@H](CCCCN)NC(=O)[C@H](CCC(=O)O)NC(=O)[C@H](CC(C)C)NC(=O)C(C)(C)NC(=O)[C@@H](NC(=O)[C@H](CO)NC(=O)[C@H](Cc1ccc(O)cc1)NC(=O)[C@H](CC(=O)O)NC(=O)[C@H](CO)NC(=O)[C@@H](NC(=O)[C@H](Cc1ccccc1)NC(=O)[C@H](C)NC(=O)CNC(=O)[C@H](CCC(=O)O)NC(=O)C(C)(C)NC(=O)[C@@H](N)Cc1ccc(O)cc1)[C@@H](C)O)[C@@H](C)CC)C(C)C)C(=O)N[C@@H](CC(N)=O)C(=O)N[C@@H](CCCCNC(=O)[C@@H](N)CCCCNC(=O)CC[C@H](NC(=O)CC[C@H](NC(=O)CC[C@H](NC(=O)CC[C@H](NC(=O)CC[C@H](NC(=O)CC[C@H](NC(=O)CCCCCCCCCCCCCCCCC(=O)O)C(=O)O)C(=O)O)C(=O)O)C(=O)O)C(=O)O)C(=O)O)C(=O)NC(C)(C)C(=O)N[C@H](C(=O)N[C@@H](CCCNC(=N)N)C(=O)N[C@@H](CCC(N)=O)C(=O)N[C@@H](CCCNC(=N)N)C(=O)N[C@@H](Cc1ccc(O)cc1)C(N)=O)[C@@H](C)O [Compound 85, Y-Aib-E-G-A-F-T-S-D-Y-S-I-Aib-L-E-K-Q-A-Q-Aib-A-F-V-R-H-L-I-N-K(1,3)-Aib-T-R-Q-R-Y-NH2.C18DA-gGlu-gGlu-gGlu-gGlu-gGlu-gGlu-eLys(1,2)]
–	162 nM	0.8 nM	–	0.3 nM	5.9 nM	CC[C@H](C)[C@H](NC(=O)[C@H](CC(C)C)NC(=O)[C@H](Cc1c[nH]cn1)NC(=O)[C@H](CCCNC(=N)N)NC(=O)[C@@H](NC(=O)[C@H](Cc1ccccc1)NC(=O)[C@H](C)NC(=O)C(C)(C)NC(=O)[C@H](CCC(N)=O)NC(=O)[C@H](C)NC(=O)[C@H](CCC(N)=O)NC(=O)[C@H](CCCCN)NC(=O)[C@H](CCC(=O)O)NC(=O)[C@H](CC(C)C)NC(=O)C(C)(C)NC(=O)[C@@H](NC(=O)[C@H](CO)NC(=O)[C@H](Cc1ccc(O)cc1)NC(=O)[C@H](CC(=O)O)NC(=O)[C@H](CO)NC(=O)[C@@H](NC(=O)[C@H](Cc1ccccc1)NC(=O)[C@@H](NC(=O)CNC(=O)[C@H](CCC(=O)O)NC(=O)C(C)(C)NC(=O)[C@@H](N)Cc1ccc(O)cc1)[C@@H](C)O)[C@@H](C)O)[C@@H](C)CC)C(C)C)C(=O)N[C@@H](CC(N)=O)C(=O)N[C@@H](CCCCNC(=O)[C@@H](N)CCCCNC(=O)CC[C@H](NC(=O)CC[C@H](NC(=O)CC[C@H](NC(=O)CC[C@H](NC(=O)CC[C@H](NC(=O)CC[C@H](NC(=O)CCCCCCCCCCCCCCCCC(=O)O)C(=O)O)C(=O)O)C(=O)O)C(=O)O)C(=O)O)C(=O)O)C(=O)NC(C)(C)C(=O)N[C@H](C(=O)N[C@@H](CCCNC(=N)N)C(=O)N[C@@H](CCC(N)=O)C(=O)N[C@@H](CCCNC(=N)N)C(=O)N[C@@H](Cc1ccc(F)cc1)C(N)=O)[C@@H](C)O [Compound 86, Y-Aib-E-G-T-F-T-S-D-Y-S-I-Aib-L-E-K-Q-A-Q-Aib-A-F-V-R-H-L-I-N-K(1,3)-Aib-T-R-Q-R-Phe4F-NH2.C18DA-gGlu-gGlu-gGlu-gGlu-gGlu-gGlu-eLys(1,2)]
–	125 nM	0.9 nM	1.7 nM	0.3 nM	1.7 nM	CC[C@H](C)[C@H](NC(=O)[C@H](CC(C)C)NC(=O)[C@H](Cc1c[nH]cn1)NC(=O)[C@H](CCCNC(=N)N)NC(=O)[C@@H](NC(=O)[C@H](Cc1ccccc1)NC(=O)[C@H](C)NC(=O)C(C)(C)NC(=O)[C@H](CCC(N)=O)NC(=O)[C@H](C)NC(=O)[C@H](CCC(N)=O)NC(=O)[C@H](CCCCN)NC(=O)[C@H](CCC(=O)O)NC(=O)[C@H](CC(C)C)NC(=O)C(C)(C)NC(=O)[C@@H](NC(=O)[C@H](CO)NC(=O)[C@H](Cc1ccc(O)cc1)NC(=O)[C@H](CC(=O)O)NC(=O)[C@H](CO)NC(=O)[C@@H](NC(=O)[C@H](Cc1ccccc1)NC(=O)[C@@H](NC(=O)CNC(=O)[C@H](CCC(=O)O)NC(=O)C(C)(C)NC(=O)[C@@H](N)Cc1ccc(O)cc1)[C@@H](C)O)[C@@H](C)O)[C@@H](C)CC)C(C)C)C(=O)N[C@@H](CC(N)=O)C(=O)N[C@@H](CCCCNC(=O)CC[C@H](NC(=O)CC[C@H](NC(=O)CC[C@H](NC(=O)CC[C@H](NC(=O)CC[C@H](NC(=O)CCCCCCCCCCCCCCCCC(=O)O)C(=O)O)C(=O)O)C(=O)O)C(=O)O)C(=O)O)C(=O)NC(C)(C)C(=O)N[C@H](C(=O)N[C@@H](CCCNC(=N)N)C(=O)N[C@@H](CCC(N)=O)C(=O)N[C@@H](CCCNC(=N)N)CN[C@@H](Cc1ccc(O)cc1)C(N)=O)[C@@H](C)O [Compound 96, Y-Aib-E-G-T-F-T-S-D-Y-S-I-Aib-L-E-K-Q-A-Q-Aib-A-F-V-R-H-L-I-N-K(1,3)-Aib-T-R-Q-dOR-Y-NH2.C18DA-gGlu-gGlu-gGlu-gGlu-gGlu(1,2)] (H-Y[Aib]EGTFTSDYSI[Aib]LEKQAQ[Aib]AFVRHLINK([γGlu-γGlu-γGlu-γGlu-γGlu-C18 diacid])[Aib]TRQ-{Argψ(CH2NH)TyrNH2})
